# Measurements: article PMC4886532, “A highly soluble, non-phototoxic, non-fluorescent blebbistatin derivative” (Scientific Reports, 2016)
# Where two headings read alike, the source gives them in different places.
# Legend:
# HeLa cells = tested on: HeLa cells; design: method as in PMID 15676022; conditions: compared to 100% of the control; cited from earlier work
# zebrafish embryos = assay: Lifespan cytotoxicity assay; conditions: all blebbistatin concentrations
# Method: Transgenic Tg(−8.0cldnb:lynEGFP)^zf106 (cldnb:EGFP)[25] zebrafish (Danio rerio) were maintained in the animal facility of Eötvös Loránd University. For the experiments investigating the skeletal and heart muscle of zebrafish, 6 dpf embryos were used. For cytotoxicity assays, 2 dpf embryos were dechorionated and placed in the indicated reagent concentrations. Embryos were kept in E3 medium (5 mM NaCl, 0.33 mM MgCl2, 0.33 mM CaCl2 and 0.17 mM KCl).
# For the fast escape response experiments, 6 dpf embryos were placed in 50 μl drops of E3 medium on a plastic plate. […] 10 taps were carried out with 1 minute intervals every hour for 4 hours. The tapping force was standardized. The videos were recorded by a Ximea Camera (MQ003MG-CM) at 500 fps for 2 s. Data were analyzed by Flote software version 2.1 and maximal angular velocity parameters of C-start reflex were quantified. For the experiments investigating the effect of the inhibitors on the heart muscle of zebrafish, 6 dpf larvae were embedded in 1% agarose and kept in E3 in the presence of 20 μM concentrations of the inhibitors. […] Embryos were considered to be dead when the whole body became necrotic and the heart stopped beating. Dead embryos were removed from the experiment to prevent contamination. Images of zebrafish were captured with a Zeiss Stereo Lumar V12 microscope using a NeoLumar S 0.8x FWD 80mm objective at 50× zoom.
# Acanthamoeba myosin II = tested on: Acanthamoeba myosin II; design: method as in PMID 15548862; conditions: read-out: IC50 actin activated ATPase activity; cited from earlier work
# smooth muscle myosin II = tested on: smooth muscle myosin II; design: method as in PMID 15548862; conditions: read-out: IC50 actin activated ATPase activity; cited from earlier work
# [1] = tested on: rabbit skeletal, porcine cardiac and scallop striated myosins, vertebrate non-muscle myosin IIs and Dictyostelium discoideum myosin II; design: method as in PMID 15548862; conditions: read-out: IC50 actin-activated ATPase activity; cited from earlier work
# zebrafish embryo = tested on: zebrafish embryo; design: method as in PMID 24954740; conditions: after 24 hours of incubation; cited from earlier work
# [2] = cited from earlier work
# [3] = tested on: rabbit skeletal muscle myosin II; design: method as in PMID 15205456; conditions: cited from earlier work
# [4] = Photoconversion / photostability under 480 ± 10 nm irradiation; conditions: 5 μM, up to 15 minutes
# Method: We compared para-aminoblebbistatin’s photostability to blebbistatin’s by irradiating the molecules in assay buffer at 480 ± 10 nm for different lengths of time (which is a typical GFP excitation range) and recorded the absorption spectra afterwards (Fig. 2d).
# Their absorbance spectra were measured at each time point.
# [5] = tested on: HeLa Kyoto H2B-mCherry eGFP-α-tubulin cells; assay: Cell growth assay (cell number, cytokinesis)
# Method: Cells incubated in different concentrations of the inhibitors were counted on each day for three days.
# [6] = molecular target: T1, Dictyostelium discoideum myosin II motor domain (DdMD) (Dictyostelium discoideum, UniProt P08799); assay: biochemical; conditions: for IC50: 20 °C
# T1 construct: Dictyostelium discoideum myosin II motor domain (DdMD)
# T1 sequence (P08799 86-759 limits assumed): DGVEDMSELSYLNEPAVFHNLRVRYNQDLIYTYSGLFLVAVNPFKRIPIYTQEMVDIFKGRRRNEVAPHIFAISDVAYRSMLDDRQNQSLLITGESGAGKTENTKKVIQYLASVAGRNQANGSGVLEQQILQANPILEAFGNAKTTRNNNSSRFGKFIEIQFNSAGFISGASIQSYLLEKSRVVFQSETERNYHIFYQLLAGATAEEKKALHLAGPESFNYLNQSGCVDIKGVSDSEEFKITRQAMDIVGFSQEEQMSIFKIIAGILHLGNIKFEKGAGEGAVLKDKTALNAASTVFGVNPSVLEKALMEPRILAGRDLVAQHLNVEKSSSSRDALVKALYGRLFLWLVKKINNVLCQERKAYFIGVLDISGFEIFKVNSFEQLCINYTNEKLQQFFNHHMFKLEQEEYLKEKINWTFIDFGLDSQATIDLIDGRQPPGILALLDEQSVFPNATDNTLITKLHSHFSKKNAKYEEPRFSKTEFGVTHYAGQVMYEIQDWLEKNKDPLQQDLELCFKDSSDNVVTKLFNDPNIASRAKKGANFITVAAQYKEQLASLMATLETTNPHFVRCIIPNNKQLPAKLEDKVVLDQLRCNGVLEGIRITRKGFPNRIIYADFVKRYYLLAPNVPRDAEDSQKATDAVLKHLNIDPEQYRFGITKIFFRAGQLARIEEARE
# Method: Myosin and actin together with the indicated concentration of the inhibitor were pre-incubated for 5 minutes at room temperature and the measurements were initiated with 1 mM ATP. Data were corrected for background ATPase activity of actin. G-actin was prepared accordingly from rabbit skeletal muscle[24] and polymerized by 2 mM MgCl2 for 1 hour at room temperature. Measurements were performed in low salt buffer containing 5 mM HEPES, 2 mM MgCl2, 0.1 mM EGTA and 2 mM DTT at pH 7.2 or assay buffer containing 20 mM HEPES, 40 mM NaCl, 4 mM MgCl2 at pH 7.3 for basal ATPase activity measurements with DdMD.
# [7] = pH 7.3
# Method: (§1) 50 μM of the inhibitors were dissolved in assay buffer (see Experimental Procedures) containing 0.1 or 1 vol/vol% DMSO, centrifuged at the indicated times and the concentration of the supernatants were determined at each time point (Fig. 2a,b).
# (§2) The DMSO content was 1%. […] The experiments were repeated three times.
# Method for physchem: as §1, §2
smiles,measurement,setting,value
Cc1ccc2c(c1)C(=O)C1(O)CCN(c3ccccc3)C1=N2 (stereo not drawn) [blebbistatin],Motility of HeLa cells on 2D surfaces,HeLa cells,~ 140%
same,Time at which all embryos died,zebrafish embryos,69 h
same,IC50,Acanthamoeba myosin II,83 µM
same,IC50,smooth muscle myosin II,79.6 µM
same,IC50,[1],0.5 to 5 µM
same,Toxicity in live zebrafish embryo tests,zebrafish embryo,highly toxic
same,Solubility (limited solubility),[2]; depending on the conditions of the measurements,7 to 20 µM
same,Concentration above which slow precipitation is observed,[2]; water,above 10 μM
same,on-rate constant kon,[3],3400 M⁻¹ s⁻¹
same,Photostability: change of absorption spectrum on irradiation,[4],changed markedly
Cc1ccc2c(c1)C(=O)[C@]1(O)CCN(c3ccc(N)cc3)C1=N2 [para-aminoblebbistatin],IC50,"[5]; Homo sapiens, HeLa Kyoto, 72 h, read-out: IC50 of the inhibition of cell proliferation",17.8 ± 4.7 µM
same,Fold weaker IC50 than blebbistatin's (cell proliferation),[5]; day 3,2–3 times
same,Maximal inhibition of actin activated ATPase of DdMD,[6],80%
same,Maximal inhibition of basal ATPase of DdMD,[6],90%
same,IC50,"[6]; 15 μM actin, read-out: IC50 actin activated ATPase activity of DdMD",6.7 ± 1.9 µM
same,IC50,[6]; read-out: IC50 basal ATPase of DdMD,6.6 ± 2 µM
same,Fold higher IC50 of AmBleb on DdMD,[6]; comparator not named (matches actin activated ratio to Bleb),1.7 times
same,Solubility,physchem; Solubility in aqueous buffer,440 µM
same,Solubility,"physchem; pH 7.3, Solubility",298 ± 2.5 µM
same,Time the supernatant concentration stayed constant,[7]; 298 μM,4 h
same,Solubility,[7],426 ± 1.7 µM
